Data reported in patent publication US11560391B2, “Sulfonylurea compounds as inhibitors of interleukin-1 activity” (Genentech, Inc., priority 2018, dated 2023).
Read-outs that look alike come from different tables or passages of the source.

How the values were obtained:
NLRP3 inflammasome = biological target: T1, NLRP3 inflammasome (Homo sapiens, UniProt Q96P20); test: NLRP3 inflammasome activation assay in LPS-primed, nigericin-stimulated PBMCs, IL-1β release; format: cell-based; conditions: 10 μM nigericin
T1 construct: freshly isolated from human peripheral blood from healthy donors; StemCells Technologies; host or cells: primary human PBMCs
Outline: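 Fresh or cryopreserved human PBMCs primed with 100 ng/mL LPS for 3 h, pre-incubated 30 min with compound (0.00017-10 uM, or 2-fold 20-point series from 40 μM), then stimulated with 10 μM nigericin for 1.5 h at 37 °C. Supernatant IL-1β measured by ELISA or by HTRF (665/620 ratio).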

TNFα = TNFα levels of LPS and nigericin stimulated PBMCs (counter-screen); format: cell-based; conditions: Homo sapiens, PBMC
Protocol: Human peripheral blood mononuclear cells (PBMCs), consisting of lymphocytes (T, B and NK cells), monocytes and dendritic cells, are freshly isolated from human peripheral blood from healthy donors. Cells are obtained through an IRB approved donor program by iXCells Biotechnologies where all the donors are tested for bacterial and viral infections. Cells are purified from peripheral blood using ficoll gradient centrifugation.
Fresh or cryopreserved PMBCs are seeded in V-bottom 96-well plate at 0.5-1×10^5 cells per well and incubated overnight at 37° C. with 5% CO2 in RPMI 1640 medium with GlutaMAX supplement, 4.5 g/L D-glucose, 10% Fetal Bovine Serum (FBS), […] Sodium Pyruvate, 1% Penicillin/Streptomycin, 10 mM HEPES and 0.05 mM of […]. Freshly isolated or cryopreserved KCs cells are seeded in flat-bottom 96-well plates at 0.6-1.5×10^5 cells/well and incubated overnight at 37° C., 5% CO2 in RPMI 1640 Medium with GlutaMAX supplement, FBS, 1% Penicillin/Streptomycin and 10 mM HEPES. The following day, the cells are primed with 100 ng/mL of lipopolysaccharides (LPS; Sigma Aldrich) in FBS-free RPMI 1640 for 3 h. After the priming step, the media is removed and PBMCs are pre-incubated with serial concentrations of test compounds (0.00017-10 uM) or vehicle (DMSO) for 30 min in FBS-free media prior to addition of the NLRP3 activator. Cells are then stimulated with 10 μM Nigericin (Sigma Aldrich; InvivoGen) for 1.5 h. Plates were centrifuged at 1,500 rpm for 3 minutes to pellet cells and supernatant was transferred into new plates for subsequent experiments.
For ELISA assays cells are seeded into 96-well plates. Post study, supernatants are removed and the levels of mature IL-1β, IL18 and TNFα (Quantikine ELISA, R&D systems) are measured in cell conditioned media by ELISA according to manufacturer's instructions.
TNFα levels of LPS and nigericin stimulated cells are measured by HTRF assay (Cisbio, Bedford, Mass.). […] Measuring TNFalpha production also serves as a technical counter-screen to eliminate compounds that interfere with the HTRF reagents. Thus compounds that inhibit both IL-1β and TNFα levels are triaged for either being non-selective for inflammasome or interfering with the HTRF readout.

PBMCs = test: CTG (CellTiter-Glo) viability assay of compound-treated LPS and nigericin stimulated PBMCs; format: cell-based, human; conditions: Homo sapiens, PBMC
Outline: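 Human PBMCs primed with 100 ng/mL LPS for 3 h, pre-incubated 30 min with compound (0.00017–10 uM) in FBS-free medium, then stimulated with 10 μM nigericin for 1.5 h. Viability read by CellTiter-Glo ATP luminescence as a cytotoxicity counter-screen.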

THP-1 ASC-GFP cells = test: THP-1 ASC-GFP speck assay (NLRP3 inflammasome activation, nigericin); format: cell-based; conditions: THP1-ASC-GFP; PMA-differentiated, LPS primed, 10 μM nigericin
Outline: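 PMA-differentiated (500 ng/ml, overnight) THP-1 ASC-GFP cells primed with LPS 1 μg/mL for 3 h, pre-treated 30 min with compound (20-point, 2-fold from 40 μM), then nigericin 10 μM for 90 min. After fixation, imaging gives % cells with ASC-GFP specks against Hoechst-counted nuclei.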

[1] = LPS 100 ng/mL priming, read-out: IL-1B pIC50 (converted)
[2] = LPS and nigericin stimulated cells, read-out: TNFa pIC50 (converted)
[3] = LPS and nigericin stimulated cells, read-out: CTG pIC50 (converted)
[4] = PBMC, LPS priming, read-out: PMBC IL-1β IC50

T1 sequence (Q96P20 whole entry): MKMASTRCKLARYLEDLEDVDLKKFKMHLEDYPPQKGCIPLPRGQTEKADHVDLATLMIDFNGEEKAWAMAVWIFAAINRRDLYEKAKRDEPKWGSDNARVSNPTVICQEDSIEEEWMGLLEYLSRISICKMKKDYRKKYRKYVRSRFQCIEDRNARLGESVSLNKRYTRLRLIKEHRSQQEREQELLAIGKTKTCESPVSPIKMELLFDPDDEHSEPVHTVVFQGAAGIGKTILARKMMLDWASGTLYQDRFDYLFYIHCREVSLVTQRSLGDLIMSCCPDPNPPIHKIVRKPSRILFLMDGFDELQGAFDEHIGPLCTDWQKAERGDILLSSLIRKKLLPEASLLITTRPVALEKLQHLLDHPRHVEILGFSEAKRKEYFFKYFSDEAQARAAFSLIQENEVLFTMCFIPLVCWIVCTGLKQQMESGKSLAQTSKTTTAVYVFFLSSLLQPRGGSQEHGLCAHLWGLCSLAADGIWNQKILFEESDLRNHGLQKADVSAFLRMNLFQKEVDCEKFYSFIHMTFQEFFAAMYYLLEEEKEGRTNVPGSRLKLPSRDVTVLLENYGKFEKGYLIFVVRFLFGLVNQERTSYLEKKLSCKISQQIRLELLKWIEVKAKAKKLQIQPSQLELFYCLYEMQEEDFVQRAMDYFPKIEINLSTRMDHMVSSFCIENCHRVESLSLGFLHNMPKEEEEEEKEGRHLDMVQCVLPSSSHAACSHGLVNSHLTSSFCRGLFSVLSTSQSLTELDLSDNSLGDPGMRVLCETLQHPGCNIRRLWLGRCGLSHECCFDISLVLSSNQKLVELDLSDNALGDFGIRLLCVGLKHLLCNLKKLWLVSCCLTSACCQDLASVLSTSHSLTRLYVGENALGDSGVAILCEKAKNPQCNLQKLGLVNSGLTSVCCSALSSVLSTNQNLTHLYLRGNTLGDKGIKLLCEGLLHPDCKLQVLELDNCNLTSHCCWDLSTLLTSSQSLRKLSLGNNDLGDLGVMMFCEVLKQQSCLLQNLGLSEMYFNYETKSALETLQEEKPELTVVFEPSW

IC50 (NLRP3 inflammasome; [1]) | IC50 (NLRP3 inflammasome; [4]) | IC50 (THP-1 ASC-GFP cells) | Compound | IC50 (TNFα; [2]) | IC50 (PBMCs; [3]) | IC50 (PBMCs; read-out: PMBC CTG IC50) | also measured
> 10000 nM |  |  | CC(C)NC(=O)NS(=O)(=O)c1cnn2c1OCC(CN)C2 (centres unmarked) | > 10 µM | > 10 µM |  | 
1000 to 10000 nM |  |  | Cc1cc(C(C)C)c(NC(=O)NS(=O)(=O)c2cnn3c2OCCC3)c(C(C)C)n1 [drawing 415] | > 10 µM | 1 to 10 µM |  | 
 | > 10000 nM |  | CC(C)NC(=O)NS(=O)(=O)c1cnn2c1OCC(CN)C2 (racemic) [Example 56, 6-(aminomethyl)-N-(isopropylcarbamoyl)-6,7-dihydro-5H-pyrazolo[5,1-b][1,3]oxazine-3-sulfonamide] |  |  | > 10 µM | IC50 (TNFα; read-out: PMBC TNFα IC50): > 10 µM
 | 1500 nM | 720 nM | COc1cc(C(C)C)c(NC(=O)NS(=O)(=O)c2cnn3c2OCC(CNC(C)=O)C3)c(C(C)C)n1 (racemic) [Example 40, N-((3-(N-((2,4-diisopropyl-6-methoxypyridin-3-yl)carbamoyl)sulfamoyl)-6,7-dihydro-5H-pyrazolo[5,1-b][1,3]oxazin-6-yl)methyl)acetamide] |  |  | 1.25 µM | 
 | 1140 nM | 2500 nM | CO[C@@H]1COc2c(S(=O)(=O)NC(=O)Nc3c(C(C)C)nn(C)c3C(C)C)cnn2C1 [Example 38a, (S)—N-((3,5-diisopropyl-1-methyl-1H-pyrazol-4-yl)carbamoyl)-6-methoxy-6,7-dihydro-5H-pyrazolo[5,1-b][1,3]oxazine-3-sulfonamide] |  |  | 0.68 µM | 

Second part, the compound before the results:

Compound | IC50 (NLRP3 inflammasome; [1]) | IC50 (NLRP3 inflammasome; [4]) | IC50 (THP-1 ASC-GFP cells) | IC50 (TNFα; [2]) | IC50 (PBMCs; [3]) | IC50 (PBMCs; read-out: PMBC CTG IC50) | also measured
CC(C)c1ncc2c(c1NC(=O)NS(=O)(=O)c1cnn3c1OCCC3)CCC2 [Example 55, N-((3-isopropyl-6,7-dihydro-5H-cyclopenta[c]pyridin-4-yl)carbamoyl)-6,7-dihydro-5H-pyrazolo[5,1-b][1,3]oxazine-3-sulfonamide] |  | > 10000 nM |  |  |  |  | IC50 (TNFα; read-out: PMBC TNFα IC50 (μM)): > 10 µM; IC50 (PBMCs; read-out: PMBC CTG IC50 (μM)): > 10 µM
COc1cc(C(C)C)c(NC(=O)NS(=O)(=O)c2cnn3c2OCC(C)(C)C3)c(C(C)C)n1 [drawing 414] | 1000 to 10000 nM |  |  | > 10 µM | 1 to 10 µM |  | 
CC(C)c1ncc2c(c1NC(=O)NS(=O)(=O)c1cnn3c1OCCC3)CCC2 [drawing 422] | > 10000 nM |  |  | > 10 µM | > 10 µM |  | 
CC(C)c1cc(C(F)(F)F)nc(C(C)C)c1NC(=O)NS(=O)(=O)c1cnn2c1OCCC2 [Example 54, N-((2,4-diisopropyl-6-(trifluoromethyl)pyridin-3-yl)carbamoyl)-6,7-dihydro-5H-pyrazolo[5,1-b][1,3]oxazine-3-sulfonamide] |  | 320 nM | 620 nM |  |  | 0.016 µM | IC50 (TNFα; read-out: PMBC TNFα IC50): > 10 µM
CNc1cc(C(C)C)c(NC(=O)NS(=O)(=O)c2cnn3c2OCCC3)c(C(C)C)n1 [drawing 420] | 1000 to 10000 nM |  |  | > 10 µM | 0.1 to 1 µM |  | 
COc1cc(C(C)C)c(NC(=O)NS(=O)(=O)c2cnn3c2OC[C@@H](N(C)C)C3)c(C(C)C)n1 [Example 52a, (S)—N-((2,4-diisopropyl-6-methoxypyridin-3-yl)carbamoyl)-6-(dimethylamino)-6,7-dihydro-5H-pyrazolo[5,1-b][1,3]oxazine-3-sulfonamide] |  | 790 nM | 500 nM |  |  | 0.39 µM | IC50 (TNFα; read-out: PMBC TNFα IC50): > 10 µM
COc1cc(C(C)C)c(NC(=O)NS(=O)(=O)c2cnn3c2OC[C@@H](N(C)C)C3)c(C(C)C)n1 [drawing 419] | 100 to 1000 nM |  |  | > 10 µM | 0.1 to 1 µM |  | 
COc1cc(C(C)C)c(NC(=O)NS(=O)(=O)c2cnn3c2OCCC3)c(C(C)C)n1 [Example 30, N-((2,4-diisopropyl-6-methoxypyridin-3-yl)carbamoyl)-6,7-dihydro-5H-pyrazolo[5,1-b][1,3]oxazine-3-sulfonamide] |  | 850 nM | 1800 nM |  |  | 0.73 µM | 
CC(C)c1cc(C(F)(F)F)nc(C(C)C)c1NC(=O)NS(=O)(=O)c1cnn2c1OCCC2 [drawing 421] | 100 to 1000 nM |  |  | > 10 µM | < 0.1 µM |  | 
